≈ marks a conversion by molar mass, not a printed value.
Experiments:
Type in all cases: functional
Staphylococcus aureus [1] = experiment: Antimicrobial activity against methicillin-resistant Staphylococcus aureus isolate 309-7
Staphylococcus aureus [2] = experiment: Antimicrobial activity against methicillin-sensitive Staphylococcus aureus isolate 309-1
Staphylococcus aureus [3] = experiment: Antimicrobial activity against methicillin-resistant Staphylococcus aureus isolate 309-8
Bacillus subtilis = experiment: Antimicrobial activity against Bacillus subtilis ATCC 6633
Staphylococcus aureus [4] = experiment: Antimicrobial activity against methicillin-resistant Staphylococcus aureus isolate 309-4
Pseudomonas aeruginosa = experiment: Antimicrobial activity against Pseudomonas aeruginosa PAO1
Staphylococcus aureus [5] = experiment: Antimicrobial activity against methicillin-resistant Staphylococcus aureus isolate Chaoyang
Staphylococcus aureus [6] = experiment: Antimicrobial activity against methicillin-resistant Staphylococcus aureus isolate 6-42
Staphylococcus aureus [7] = experiment: Antimicrobial activity against methicillin-resistant Staphylococcus aureus
Staphylococcus aureus [8] = experiment: Antimicrobial activity against Staphylococcus aureus ATCC 6538

| SMILES | MBC (Staphylococcus aureus [1]) [mg/L] | MIC (Staphylococcus aureus [1]) [mg/L] | MBC (Staphylococcus aureus [2]) [mg/L] | MIC (Staphylococcus aureus [2]) [mg/L] | MBC (Staphylococcus aureus [3]) [mg/L] | MIC (Staphylococcus aureus [3]) [mg/L] | MIC (Bacillus subtilis) [mg/L] | MBC (Staphylococcus aureus [4]) [mg/L] | MIC (Staphylococcus aureus [4]) [mg/L] | MIC (Pseudomonas aeruginosa) [mg/L] | MBC (Staphylococcus aureus [5]) [mg/L] | MIC (Staphylococcus aureus [5]) [mg/L] | MBC (Staphylococcus aureus [6]) [mg/L] | MIC (Staphylococcus aureus [6]) [mg/L] | MIC (Staphylococcus aureus [7]) [mg/L] | MBC (Staphylococcus aureus [8]) [mg/L] | MIC (Staphylococcus aureus [8]) [mg/L] |
| --- | --- | --- | --- | --- | --- | --- | --- | --- | --- | --- | --- | --- | --- | --- | --- | --- | --- |
| CCOC(=O)[C@H](Cc1c[nH]c2ccccc12)NSc1ccccc1[N+](=O)[O-] | > 100 | 6.25 (≈ 16.2 µM) | > 100 | 12.5 (≈ 32.4 µM) | > 100 | 6.25 (≈ 16.2 µM) | 6.25 (≈ 16.2 µM) | > 100 | 12.5 (≈ 32.4 µM) | > 100 | > 100 | 1.56 (≈ 4.05 µM) | > 100 | 1.56 (≈ 4.05 µM) | 1.56 (≈ 4.05 µM) | > 100 | 6.25 (≈ 16.2 µM) |
| CCOC(=O)c1ccccc1SN1C(=O)C(=O)c2cccc(Br)c21 | – | – | – | – | – | – | > 100 | – | – | > 100 | – | – | – | – | > 100 | – | – |
| COC(=O)[C@H](Cc1c[nH]c2ccccc12)NSc1ccccc1 | – | – | – | – | – | – | 25 (≈ 76.6 µM) | – | – | > 100 | – | – | – | – | 50 (≈ 153 µM) | – | – |
| COC(=O)CC[C@H](NSc1ccc([N+](=O)[O-])cc1)C(=O)OC | > 100 | 3.13 (≈ 9.53 µM) | > 100 | 6.25 (≈ 19 µM) | > 100 | 3.13 (≈ 9.53 µM) | 3.13 (≈ 9.53 µM) | > 100 | 6.25 (≈ 19 µM) | > 100 | > 100 | 1.56 (≈ 4.75 µM) | > 100 | 1.56 (≈ 4.75 µM) | 1.56 (≈ 4.75 µM) | > 100 | 6.25 (≈ 19 µM) |
| O=C1C(=O)N(Sc2ccccc2)c2ccccc21 | – | – | – | – | – | – | 25 (≈ 97.9 µM) | – | – | > 100 | – | – | – | – | 50 (≈ 196 µM) | – | – |
| COC(=O)CC[C@H](N)C(=O)OC | > 100 | > 100 | > 100 | > 100 | > 100 | > 100 | – | > 100 | > 100 | – | > 100 | > 100 | > 100 | > 100 | – | > 100 | > 100 |
| CCOC(=O)c1ccccc1SN1C(=O)C(=O)c2cccc(Cl)c21 | – | – | – | – | – | – | > 100 | – | – | > 100 | – | – | – | – | > 100 | – | – |
| COC(=O)[C@H](Cc1c[nH]c2ccccc12)NSc1ccccc1[N+](=O)[O-] | > 100 | 12.5 (≈ 33.7 µM) | > 100 | 25 (≈ 67.3 µM) | > 100 | 25 (≈ 67.3 µM) | 12.5 (≈ 33.7 µM) | > 100 | 25 (≈ 67.3 µM) | > 100 | > 100 | 3.13 (≈ 8.43 µM) | > 100 | 3.13 (≈ 8.43 µM) | 3.13 (≈ 8.43 µM) | > 100 | 6.25 (≈ 16.8 µM) |
| CCOC(=O)[C@@H](N)Cc1c[nH]c2ccccc12 | > 100 | > 100 | > 100 | > 100 | > 100 | > 100 | – | > 100 | > 100 | – | > 100 | > 100 | > 100 | > 100 | – | > 100 | > 100 |
| CCOC(=O)[C@H](Cc1c[nH]c2ccccc12)NSc1ccccc1 | – | – | – | – | – | – | 25 (≈ 73.4 µM) | – | – | > 100 | – | – | – | – | 25 (≈ 73.4 µM) | – | – |
| COC(=O)[C@H](Cc1c[nH]c2ccccc12)NSc1ccc([N+](=O)[O-])cc1 | – | – | – | – | – | – | 25 (≈ 67.3 µM) | – | – | > 100 | – | – | – | – | > 100 | – | – |
| CC(C)OC(=O)[C@H](Cc1c[nH]c2ccccc12)NSc1ccccc1[N+](=O)[O-] | > 100 | 6.25 (≈ 15.6 µM) | > 100 | 25 (≈ 62.6 µM) | > 100 | 6.25 (≈ 15.6 µM) | 12.5 (≈ 31.3 µM) | > 100 | 25 (≈ 62.6 µM) | > 100 | > 100 | 3.13 (≈ 7.84 µM) | > 100 | 3.13 (≈ 7.84 µM) | 3.13 (≈ 7.84 µM) | > 100 | 6.25 (≈ 15.6 µM) |
| CN[C@H](CC(C)C)C(=O)N[C@H]1C(=O)N[C@@H](CC(N)=O)C(=O)N[C@H]2C(=O)N[C@H]3C(=O)N[C@H](C(=O)N[C@H](C(=O)O)c4cc(O)cc(O)c4-c4cc3ccc4O)[C@H](O)c3ccc(c(Cl)c3)Oc3cc2cc(c3O[C@@H]2O[C@H](CO)[C@@H](O)[C@H](O)[C@H]2O[C@H]2C[C@](C)(N)[C@H](O)[C@H](C)O2)Oc2ccc(cc2Cl)[C@H]1O [VANCOMYCIN] | 1 (≈ 0.69 µM) | – | 1 (≈ 0.69 µM) | – | 1 (≈ 0.69 µM) | – | 0.5 (≈ 0.345 µM) | 1 (≈ 0.69 µM) | – | > 100 | 1 (≈ 0.69 µM) | – | 1 (≈ 0.69 µM) | – | – | 2 (≈ 1.38 µM) | – |
| CCOC(=O)CC[C@H](NSc1ccccc1[N+](=O)[O-])C(=O)OCC | – | – | – | – | – | – | 25 (≈ 70.1 µM) | – | – | > 100 | – | – | – | – | 25 (≈ 70.1 µM) | – | – |
| COC(=O)CC[C@H](NSc1ccccc1[N+](=O)[O-])C(=O)OC | – | – | – | – | – | – | 25 (≈ 76.1 µM) | – | – | > 100 | – | – | – | – | 12.5 (≈ 38.1 µM) | – | – |
| O=C1C(=O)N(Sc2ccccc2[N+](=O)[O-])c2c(Cl)cccc21 | > 100 | 6.25 (≈ 18.7 µM) | > 100 | 12.5 (≈ 37.3 µM) | > 100 | 12.5 (≈ 37.3 µM) | > 100 | > 100 | 12.5 (≈ 37.3 µM) | > 100 | > 100 | 6.25 (≈ 18.7 µM) | > 100 | 6.25 (≈ 18.7 µM) | 6.25 (≈ 18.7 µM) | > 100 | 12.5 (≈ 37.3 µM) |

Source: ChEMBL document CHEMBL2311326, “Synthesis and evaluation of novel sulfenamides as novel anti Methicillin-resistant Staphylococcus aureus agents” (2013)
